This note sets out measurements from US8981114B2, “Derivatives of 1-(substituted sulfonyl)-2-aminoimidazoline as antitumor and antiproliferative agents” (OncoArendi Therapeutics Sp. z.o.o., priority 2013, dated 2015).

Some results are limits rather than exact numbers.

The first assay relates to colon human tumor (HT-29) cells. As to the kind of experiment: Cell growth inhibitory activity, standard MTT assay. It is filed as cell-based. As to conditions: Homo sapiens, MTT assay after 72 hr exposure, 0.1% DMSO, read-out: IC50 range. The procedure:
Cell growth inhibitory activity of compounds of this invention was determined using a standard MTT assay. Adherent cells of colon human tumor (HT-29) sourced from ATCC (cells number: HTB-38) were treated with DMSO solutions of tested compounds with the ultimate concentration of DMSO in the test solution being 0.1%. Following the 72 hour long treatment MTT was added, and after a brief incubation the resulting formazan was dissolved in addional DMSO and the solutions were scanned using 570 nm wavelength.
On the technique in general: Tetrazolium assays rely on reduction of a dye to a coloured formazan, in cell work by metabolically active cells.
On to `CC(C)NC(=O)N1CCc2cc(S(=O)(=O)N3C[C@H](c4ccccc4)N=C3N)ccc21` [Example 98], for which the IC50 (commonly the concentration needed to halve the response being measured) was less than 100 nM.

The same assay, now with this note: MTT assay after 72 hr exposure, 0.1% DMSO, read-out: IC50 range.
On to `CC1Cc2cc(S(=O)(=O)N3CC(c4ccccc4)N=C3N)ccc2N1C(=O)c1ccc(N)cc1` (mixture of isomers) [Example 54], for which the IC50 is less than 100 nM.

On to `NC1=N[C@@H](c2ccccc2)CN1S(=O)(=O)c1ccc2c(c1)CCN2C(=O)c1ccco1` [Example 35], for which the IC50 was less than 100 nM.

Regarding `CC(C)[C@H]1CN(S(=O)(=O)c2ccc3c(c2)CCN3C(=O)c2ccco2)C(N)=N1` [Example 36], the IC50 was less than 100 nM.

Consider `NC1=N[C@@H](C2CCCCC2)CN1S(=O)(=O)c1ccc2c(c1)CCN2C(=O)c1ccco1` [Example 37], for which the IC50 is less than 100 nM.

For `NC1=N[C@@H](c2ccccc2)CN1S(=O)(=O)c1ccc2c(c1)CCN2C(=O)c1cccs1` [Example 38], the IC50 was less than 100 nM.

As to `CC(=O)N1CCc2cc(S(=O)(=O)N3C[C@H](c4ccccc4)N=C3N)ccc21` [Example 39], the IC50 lay within 100 to 500 nM.

Turning to `CCC(=O)N1CCc2cc(S(=O)(=O)N3C[C@H](c4ccccc4)N=C3N)ccc21` [Example 40], the IC50 is less than 100 nM.

As for `CCCC(=O)N1CCc2cc(S(=O)(=O)N3C[C@H](c4ccccc4)N=C3N)ccc21` [Example 41], the IC50 was less than 100 nM.

Consider `CC(C)C(=O)N1CCc2cc(S(=O)(=O)N3C[C@H](c4ccccc4)N=C3N)ccc21` [Example 42], for which the concentration for half-maximal inhibition (IC50) was less than 100 nM.

Take `NC1=N[C@@H](c2ccccc2)CN1S(=O)(=O)c1ccc2c(c1)CCN2C(=O)Cc1cccs1` [Example 43]: the IC50 is less than 100 nM.

As for `NC1=N[C@@H](c2ccccc2)CN1S(=O)(=O)c1ccc2c(c1)CCN2C(=O)c1ccccc1` [Example 44], the IC50 is less than 100 nM.

Regarding `CN(C)c1ccc(C(=O)N2CCc3cc(S(=O)(=O)N4C[C@H](c5ccccc5)N=C4N)ccc32)cc1` [Example 46], the 50% inhibitory concentration (IC50) was less than 100 nM.

With `CCOc1ccc(C(=O)N2CCc3cc(S(=O)(=O)N4C[C@H](c5ccccc5)N=C4N)ccc32)cc1` [Example 47], the IC50 is less than 100 nM.

With `NC1=N[C@@H](c2ccccc2)CN1S(=O)(=O)c1ccc2c(c1)CCN2C(=O)Cc1ccccc1` [Example 48], the IC50 is less than 100 nM.

Take `COC(=O)N1CCc2cc(S(=O)(=O)N3C[C@H](c4ccccc4)N=C3N)ccc21` [Example 49]: the IC50 was less than 100 nM.

Consider `CC(=O)N1CCC(C(=O)N2CCc3cc(S(=O)(=O)N4C[C@H](c5ccccc5)N=C4N)ccc32)CC1` [Example 50], for which the IC50 was less than 100 nM.

As to `NC1=N[C@@H](c2ccccc2)CN1S(=O)(=O)c1ccc2c(c1)CCN2C(=O)C1CCCCC1` [Example 51], the half-inhibitory concentration (IC50) is less than 100 nM.

In the case of `NC1=N[C@@H](c2ccccc2)CN1S(=O)(=O)c1ccc2c(c1)CCN2C(=O)c1cccc2ccccc12` [Example 52], the IC50 was less than 100 nM.

As to `NC1=N[C@@H](c2ccccc2)CN1S(=O)(=O)c1ccc2c(c1)CCN2C(=O)c1cccnc1` [Example 53], the IC50 is less than 100 nM.

As for `CC(C)NC(=S)N1CCc2cc(S(=O)(=O)N3C[C@H](c4ccccc4)N=C3N)ccc21` [Example 55], the half-inhibitory concentration (IC50) was less than 100 nM.

For the compound `CCCC(=O)N1CCCc2cc(S(=O)(=O)N3C[C@H](c4ccccc4)N=C3N)ccc21` [Example 56], the IC50 is less than 100 nM.

`CCCC(=O)N1CCc2cc(S(=O)(=O)N3C[C@@H](c4ccccc4)N=C3N)ccc21` [Example 57]: the IC50 was more than 500 nM.

Take `COc1ccc([C@H]2CN(S(=O)(=O)c3ccc4c(c3)CCN4C(=O)c3cccn3C)C(N)=N2)cc1` [Example 62]: the IC50 is more than 500 nM.

Regarding `Cn1cccc1C(=O)N1CCc2cc(S(=O)(=O)N3C[C@H](c4ccccc4Cl)N=C3N)ccc21` [Example 64], the IC50 is less than 100 nM.

As to `Cc1cccc([C@H]2CN(S(=O)(=O)c3ccc4c(c3)CCN4C(=O)c3cccn3C)C(N)=N2)c1` [Example 65], the IC50 is 100 to 500 nM.

On to `NC1=N[C@@H](c2ccccc2)CN1S(=O)(=O)c1ccc2c(c1)CCN2` [Example 70], for which the half-maximal inhibitory concentration (IC50) was less than 100 nM.

In the case of `COCCNC(=O)N1CCc2cc(S(=O)(=O)N3CCN=C3N)ccc21` [Example 76], the IC50 was in the range of 100 to 500 nM.

For `CCCNC(=O)N1CCc2cc(S(=O)(=O)N3C[C@H](c4ccccc4)N=C3N)ccc21` [Example 82], the half-maximal inhibitory concentration (IC50) was less than 100 nM.

Turning to `CCCNC(=O)N1CCc2cc(S(=O)(=O)N3C[C@H](c4ccc(F)cc4)N=C3N)ccc21` [Example 83], the IC50 is less than 100 nM.

In the case of `CCCNC(=O)N1CCc2cc(S(=O)(=O)N3C[C@H](c4ccc(OC)cc4)N=C3N)ccc21` [Example 84], the IC50 is 100 to 500 nM.

`CCCNC(=O)N1CCc2cc(S(=O)(=O)N3C[C@H](c4ccccc4C)N=C3N)ccc21` [Example 87]: the IC50 was less than 100 nM.

`CCCCNC(=O)N1CCc2cc(S(=O)(=O)N3C[C@H](c4ccccc4)N=C3N)ccc21` [Example 89]: the IC50 was less than 100 nM.

In the case of `CCCCNC(=O)N1CCc2cc(S(=O)(=O)N3C[C@H](c4cccc(Cl)c4)N=C3N)ccc21` [Example 93], the 50% inhibitory concentration (IC50) is less than 100 nM.

With `CCCCNC(=O)N1CCc2cc(S(=O)(=O)N3C[C@H](c4ccccc4C)N=C3N)ccc21` [Example 95], the IC50 is less than 100 nM.

`CCCCNC(=O)N1CCc2cc(S(=O)(=O)N3C[C@H](c4ccc(Cl)cc4)N=C3N)ccc21` [Example 97]: the IC50 lay in the range of 100 to 500 nM.

Regarding `NC1=N[C@@H](c2ccccc2)CN1S(=O)(=O)c1ccc2c(c1)CCN2C(=O)NCC1CC1` [Example 100], the IC50 was less than 100 nM.

Take `CC(C)(C)CNC(=O)N1CCc2cc(S(=O)(=O)N3C[C@H](c4ccccc4)N=C3N)ccc21` [Example 102]: the IC50 is less than 100 nM.
